Reference: ChEMBL document CHEMBL3885881, “DrugMatrix”

Species on record: Rattus norvegicus
Assay: DrugMatrix - Regimen: Daily Repeat
Format: toxicity, organism-based, Sprague-Dawley
Set-up: regimen Daily Repeat, gender Male, age 6-8 weeks
Settings: in vivo, po, route oral GAVAGE, vehicle 100 % WATER; for ABSOLUTE BASOPHIL / ABSOLUTE EOSINOPHIL / ABSOLUTE LYMPHOCYTE / ABSOLUTE MONOCYTE / ABSOLUTE SEGMENTED NEUTROPHIL / BASOPHIL / EOSINOPHIL / ERYTHROCYTE COUNT / HEMATOCRIT / HEMOGLOBIN / LEUKOCYTE COUNT / LYMPHOCYTE / MEAN CORPUSCULAR HEMOGLOBIN / MEAN CORPUSCULAR HEMOGLOBIN CONCENTRATION / MEAN CORPUSCULAR VOLUME / MONOCYTE / NEUTROPHIL / NUCLEATED RED BLOOD CELLS / PLATELET COUNT: tissue Blood; for ALANINE AMINOTRANSFERASE / ALBUMIN / ALKALINE PHOSPHATASE / ASPARTATE AMINOTRANSFERASE / BLOOD UREA NITROGEN / CARBON DIOXIDE / CHLORIDE / CHOLESTEROL / CREATINE PHOSPHOKINASE / CREATININE / GLUCOSE / LACTATE DEHYDROGENASE / LIPASE / PHOSPHORUS / POTASSIUM / SODIUM / TOTAL BILIRUBIN / TOTAL PROTEIN / URIC ACID: tissue Plasma
[1] = 500 mg/kg, 120 h, dose level Low, time 5 day
[2] = 2000 mg/kg, 72 h, dose level High, time 3 day
[3] = 2000 mg/kg, 120 h, dose level High, time 5 day

## NCCCCCC(=O)O [AMINOCAPROIC ACID]
[1]
  ABSOLUTE BASOPHIL: 0 CELLS/uL
  ABSOLUTE EOSINOPHIL: 0 CELLS/uL
  ABSOLUTE LYMPHOCYTE: 13712 CELLS/uL
  ABSOLUTE MONOCYTE: 316 CELLS/uL
  ABSOLUTE SEGMENTED NEUTROPHIL: 872 CELLS/uL
  BASOPHIL: 0%
  EOSINOPHIL: 0%
  ERYTHROCYTE COUNT: 5.42 x10E6/uL
  HEMATOCRIT: 34.37%
  HEMOGLOBIN: 13.87 G/DL
  LEUKOCYTE COUNT: 14.9 x10E3/uL
  LYMPHOCYTE: 92.33%
  MEAN CORPUSCULAR HEMOGLOBIN: 25.67 pg
  MEAN CORPUSCULAR HEMOGLOBIN CONCENTRATION: 40.37 G/DL
  MEAN CORPUSCULAR VOLUME: 63.53 fL
  MONOCYTE: 2%
  NEUTROPHIL: 5.67%
  NUCLEATED RED BLOOD CELLS: 0 /100WBC
  PLATELET COUNT: 1257.67 x10E3/uL
  ALANINE AMINOTRANSFERASE: 51.33 u/L
  ALBUMIN: 4.4 G/DL
  ALKALINE PHOSPHATASE: 417.33 u/L
  ASPARTATE AMINOTRANSFERASE: 75.67 u/L
  BLOOD UREA NITROGEN: 15.33 mg/dL
  CARBON DIOXIDE: 26.67 mmol/L
  CHLORIDE: 101.67 MEQ/L
  CHOLESTEROL: 72.67 mg/dL
  CREATINE PHOSPHOKINASE: 253.67 u/L
  CREATININE: 0.15 mg/dL
  GLUCOSE: 153.33 mg/dL
  LACTATE DEHYDROGENASE: 102.33 u/L
  LIPASE: 9 u/L
  PHOSPHORUS: 11.07 mg/dL
  POTASSIUM: 6.75 MEQ/L
  SODIUM: 143.73 MEQ/L
  TOTAL BILIRUBIN: 0.2 mg/dL
  TOTAL PROTEIN: 6.1 G/DL
  URIC ACID: 1.57 mg/dL
[2]
  ABSOLUTE BASOPHIL: 0 CELLS/uL
  ABSOLUTE EOSINOPHIL: 99.33 CELLS/uL
  ABSOLUTE LYMPHOCYTE: 12832.33 CELLS/uL
  ABSOLUTE MONOCYTE: 0 CELLS/uL
  ABSOLUTE SEGMENTED NEUTROPHIL: 1535 CELLS/uL
  BASOPHIL: 0%
  EOSINOPHIL: 0.67%
  ERYTHROCYTE COUNT: 5.61 x10E6/uL
  HEMATOCRIT: 36.13%
  HEMOGLOBIN: 14.13 G/DL
  LEUKOCYTE COUNT: 14.47 x10E3/uL
  LYMPHOCYTE: 88.67%
  MEAN CORPUSCULAR HEMOGLOBIN: 25.17 pg
  MEAN CORPUSCULAR HEMOGLOBIN CONCENTRATION: 39.1 G/DL
  MEAN CORPUSCULAR VOLUME: 64.4 fL
  MONOCYTE: 0%
  NEUTROPHIL: 10.67%
  NUCLEATED RED BLOOD CELLS: 0.33 /100WBC
  PLATELET COUNT: 1333.33 x10E3/uL
  ALANINE AMINOTRANSFERASE: 41.67 u/L
  ALBUMIN: 4.27 G/DL
  ALKALINE PHOSPHATASE: 386.67 u/L
  ASPARTATE AMINOTRANSFERASE: 89 u/L
  BLOOD UREA NITROGEN: 18 mg/dL
  CARBON DIOXIDE: 22.67 mmol/L
  CHLORIDE: 103 MEQ/L
  CHOLESTEROL: 61.33 mg/dL
  CREATINE PHOSPHOKINASE: 502 u/L
  CREATININE: 0.2 mg/dL
  GLUCOSE: 180 mg/dL
  LACTATE DEHYDROGENASE: 295 u/L
  LIPASE: 11 u/L
  PHOSPHORUS: 11.37 mg/dL
  POTASSIUM: 5.97 MEQ/L
  SODIUM: 144.2 MEQ/L
  TOTAL BILIRUBIN: 0.27 mg/dL
  TOTAL PROTEIN: 5.77 G/DL
  URIC ACID: 1.03 mg/dL
[3]
  ABSOLUTE BASOPHIL: 0 CELLS/uL
  ABSOLUTE EOSINOPHIL: 109 CELLS/uL
  ABSOLUTE LYMPHOCYTE: 13720 CELLS/uL
  ABSOLUTE MONOCYTE: 222 CELLS/uL
  ABSOLUTE SEGMENTED NEUTROPHIL: 1882.33 CELLS/uL
  BASOPHIL: 0%
  EOSINOPHIL: 0.67%
  ERYTHROCYTE COUNT: 5.57 x10E6/uL
  HEMATOCRIT: 34.6%
  HEMOGLOBIN: 13.8 G/DL
  LEUKOCYTE COUNT: 15.93 x10E3/uL
  LYMPHOCYTE: 86.33%
  MEAN CORPUSCULAR HEMOGLOBIN: 24.83 pg
  MEAN CORPUSCULAR HEMOGLOBIN CONCENTRATION: 39.87 G/DL
  MEAN CORPUSCULAR VOLUME: 62.2 fL
  MONOCYTE: 1.33%
  NEUTROPHIL: 11.67%
  NUCLEATED RED BLOOD CELLS: 0 /100WBC
  PLATELET COUNT: 1463.33 x10E3/uL
  ALANINE AMINOTRANSFERASE: 41.67 u/L
  ALBUMIN: 4.27 G/DL
  ALKALINE PHOSPHATASE: 291 u/L
  ASPARTATE AMINOTRANSFERASE: 77 u/L
  BLOOD UREA NITROGEN: 17.67 mg/dL
  CARBON DIOXIDE: 25.33 mmol/L
  CHLORIDE: 101 MEQ/L
  CHOLESTEROL: 60.67 mg/dL
  CREATINE PHOSPHOKINASE: 281 u/L
  CREATININE: 0.15 mg/dL
  GLUCOSE: 157.33 mg/dL
  LACTATE DEHYDROGENASE: 298.67 u/L
  LIPASE: 9.33 u/L
  PHOSPHORUS: 10.73 mg/dL
  POTASSIUM: 6.02 MEQ/L
  SODIUM: 141.63 MEQ/L
  TOTAL BILIRUBIN: 0.17 mg/dL
  TOTAL PROTEIN: 6.07 G/DL
  URIC ACID: 0.8 mg/dL
